Measurements as given in publication PMC13428274 (ACS infectious diseases, 2025).

Target: BlaR (Staphylococcus aureus, UniProt P18357)
Test: SPR steady-state fit, immobilized sensor domain
Format: binding

Chain of BlaR (P18357 332-585): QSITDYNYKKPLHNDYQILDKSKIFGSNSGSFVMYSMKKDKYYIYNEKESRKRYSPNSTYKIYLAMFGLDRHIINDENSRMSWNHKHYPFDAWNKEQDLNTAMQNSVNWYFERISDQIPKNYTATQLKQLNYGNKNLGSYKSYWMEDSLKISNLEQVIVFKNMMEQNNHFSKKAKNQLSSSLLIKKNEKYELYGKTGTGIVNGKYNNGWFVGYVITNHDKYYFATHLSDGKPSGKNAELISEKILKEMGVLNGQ

Cn1ncc2c(Nc3ccc(Br)cc3)nc(Nc3ccc(Br)cc3)nc21 [compound 1, N^4,N^6-bis(4-bromophenyl)-1-methyl-1H-pyrazolo[3,4-d]pyrimidine-4,6-diamine]
Kd: 31 ± 2 µM
